`COc1ccc([C@H](CC(=O)O)n2ccn(CCCc3ccc4c(n3)NCCC4)c2=O)cn1` showed a melting point of 123 °C. With `N#Cc1cc(C(Cl)(Cl)Cl)ccc1Cl` the melting point was 66 to 68 °C. `Clc1ccc(NC2CCC3(CCNCC3)CC2)cc1Cl` showed a melting point of 128 to 132 °C. With `Cc1nnc(CNC(=O)CCl)n1-c1ccc(Cl)cc1C(=O)c1ccccc1` the melting point was 140 to 141 °C. `NCCc1ccc(C(=O)CCC(=O)O)cc1` gave a melting point of 234 to 235 °C. `C[C@@H]1CN(CC(=O)Nc2ccccc2Cl)C[C@H](C)N1c1ncnc2sccc12` showed a melting point of 206 to 207 °C. In the case of `CC(=O)Nc1ccc(CC(=O)NCCc2ccc3[nH]cc(CC#N)c3c2)cc1`, the melting point is reported as 188 to 189 °C. In the case of `Cc1cc(-c2nnc3c4ccccc4c(OCc4nc[nH]n4)nn23)no1`, the melting point is reported as 260 to 262 °C. In the case of `O=CC(=Cc1ccccc1OCc1ccc([N+](=O)[O-])cc1)C(C=O)=Cc1ccccc1OCc1ccc([N+](=O)[O-])cc1`, the melting point is reported as 116 to 117 °C. `CCN(CC)CC1CCCCN1CC(=O)N1c2ccccc2NC(=O)c2c1c(C)cn2C` (centres undefined) gave a melting point of 176 to 178 °C. With `Nc1cccc(CN2C(=O)[C@H]3CCC[C@H]3Nc3ccccc32)c1` (relative stereo) the melting point was 176 to 178 °C. `CC1(C)CCC(C)(C)c2cc(N)ccc21` showed a melting point of 63 to 65 °C. `CC1(C)OC(c2ccc(S(C)(=O)=O)cc2)=C(c2cccc3ccccc23)C1=O` showed a melting point of 194 to 195 °C. `COc1cc(N)c(Cl)cc1C(=O)N[C@H]1CCN(CCO)C[C@H]1OC` (relative stereo) gave a melting point of 153 °C. Molecule `CC(C)(C)OC(=O)NC1CCCCCC=CC2CC2(C(=O)NS(=O)(=O)C2CC2)NC(=O)C2CC(OC(=O)c3cccc(C#N)c3)CN2C1=O` (centres undefined) has a melting point of 151 to 153 °C. `CNC(=O)N1CCC(Oc2c(F)c(F)c(F)c(F)c2F)(c2ccccc2)CC1` showed a melting point of 87 to 89 °C. `O=[N+]([O-])c1cc(C(O)CCN2CC=C(c3ccc(Cl)cc3)CC2)ccc1F` (centres undefined) showed a melting point of 154 to 156 °C. With `C=CCn1c(CSC#N)nc2ccccc2c1=O` the melting point was 73 to 76 °C. `CNS(=O)(=O)CCc1ccc2[nH]cc(CC(=O)O)c2c1` gave a melting point of 123 to 125 °C. `Cc1ccc(N2CN(C(=O)c3ccccc3)C3=NN=CC3=C2N)cc1` showed a melting point of 297 to 300 °C. In the case of `OCC1(c2ccccc2)CCN(Cc2ccccc2)CC1`, the melting point is reported as 127 °C. `CC(C)N1CC(C(=O)c2ccc(Cc3ccc(F)cc3)o2)=C(O)C1=O` gave a melting point of 155 to 157 °C. Work on `Cc1c(S(C)(=O)=O)ccc(C(=O)O)c1Cl` yielded a melting point of 230 to 231 °C. Work on `COC1C(c2ccccc2)=C(c2ccc(S(C)(=O)=O)cc2)C1(C)C` (centres undefined) yielded a melting point of 130 to 132 °C. Molecule `Cc1c(Cc2cccnc2)ccc2ccc(Br)cc12` has a melting point of 101 to 104 °C. In the case of `Cc1ccnc2c1n(C(C)C)c(=O)n2-c1ccc(Oc2nc3cccnc3n2C)cc1`, the melting point is reported as 270 to 271 °C. `O=C1CCN=C(c2ccccc2F)c2cc(Cl)ccc21` showed a melting point of 107 to 109 °C. With `O=C(NN=Cc1ccnc2ccccc12)c1ccc(Cl)cc1` the melting point was 233 °C. For `CCCc1ccc(-c2nc(-c3ccccc3Cl)nn2C)c(Cl)c1`, the melting point was 70 to 72 °C. `CCOC(=O)C1=C(C)NC(c2ccc([N+](=O)[O-])cc2)=C(C(=O)OCC)C1c1cccc([N+](=O)[O-])c1` (centres undefined) gave a melting point of 176 to 177 °C. `CS(=O)(=O)c1ccc(-n2nc(C(F)(F)F)cc2-c2ccc(-c3ccsc3)cc2)cc1F` showed a melting point of 72 to 74 °C. Work on `CCOc1ccc2c(c1)n(C1CCCCC1)c(=O)n2S(=O)(=O)c1ccc(C(=O)OCc2ccccc2)cc1OC` yielded a melting point of 131 °C. In the case of `Clc1cnc2c(NCc3ccccc3)nc(Cl)nc2c1`, the melting point is reported as 169 to 170 °C. For `C=CCOc1ccc2cc(S(N)(=O)=O)sc2c1`, the melting point was 101 to 102 °C. `COc1ccc(CCCC2SC(=O)NC2=O)c2ccc(=O)n(C)c12` (centres undefined) gave a melting point of 172 to 175 °C. `COc1nnc(-c2ccccc2)cc1C` gave a melting point of 62 to 64 °C. Work on `COc1ccc(-c2ccc(C(=O)O)cc2)c2c1OC(C)(C)C2` yielded a melting point of 249 to 252 °C. Work on `Cc1cc(Oc2ncc(C(F)(F)F)cc2Cl)nn1C(=O)NC1CCCCC1` yielded a melting point of 69 to 71 °C. With `C1=C(c2cccc(CNCCOc3cccc4c3OCC4)c2)CCC1` the melting point was 118 °C. With `CCOC(=O)c1cc2cccc(OCc3ccccc3)c2[nH]1` the melting point was 82 to 83 °C. Work on `CSc1nc(NCC=C(C)C)c2ccnc-2[nH]1` yielded a melting point of 155 to 156 °C. `S=C(Nc1ccccc1)Nc1ncccc1OCc1c(Cl)cccc1Cl` gave a melting point of 148 to 149 °C. `CC(C)OC(=O)C1=C2SCC(=CC(=O)Sc3ccccc3)N2CC1C` (centres undefined) gave a melting point of 153 to 154 °C. Molecule `CC(=O)Nc1cscc1C(=O)O` has a melting point of 206 °C. Molecule `CCCC12CCC3=C(CCc4cc(O)ccc43)C1CCC2O` (centres undefined) has a melting point of 210 to 218 °C. `Cc1ccc(CCC(C)(C)NCC(O)c2cc3ccccc3o2)cc1` (centres undefined) showed a melting point of 121 to 122 °C. With `CN1CCN(S(=O)(=O)c2ccc(Br)s2)CC1` the melting point was 122 °C. In the case of `Cc1oc(-c2ccccc2)nc1CCC(O)c1ccc(CC2OC(=O)NC2=O)cc1` (centres undefined), the melting point is reported as 154 to 155 °C. In the case of `COc1cc(-c2cc(=O)c3ccc(OCC(O)CN4CCN(c5ccccc5)CC4)cc3o2)cc(OC)c1OC` (centres undefined), the melting point is reported as 170 to 171 °C. With `CCOC(=O)N1CCN(c2ncnc3[nH]ncc23)CC1` the melting point was 245 to 247 °C. `CCOC(=O)Cc1c[nH]c2cc(-c3ccccc3)nn2c1=O` gave a melting point of 245 to 250 °C. `COc1cccc(COc2ccc(S(=O)(=O)c3ccc(C)nc3Nc3c(C)cc(C)cc3C)cc2)c1` showed a melting point of 124 to 126 °C. `COC1C=C(C)C(=O)CC(C)(C)C1OC(=O)c1ccc2nc[nH]c2c1` (centres undefined) gave a melting point of 155 to 157 °C. Molecule `O=C(Oc1ccccc1)N1CCC(c2nn(C(=O)c3ccccc3)c3cc(F)ccc23)CC1` has a melting point of 137 to 139 °C. In the case of `CCOC(=O)C(CC)(CC)CCCS(N)(=O)=O`, the melting point is reported as 66 to 67 °C. In the case of `O=Cc1cccc(CF)n1`, the melting point is reported as 60 °C. With `CC(=O)NC[C@H]1CC(c2ccc(-c3ccncc3)cc2)=NO1` the melting point was 244 to 245 °C. With `CCCCc1c(-c2cc(C)c(O)c(C)c2)[nH]c2ccccc12` the melting point was 83.1 to 84.2 °C. Molecule `O=C(Nc1ccccc1)c1nc(-c2ccc(Cl)cc2Cl)c(-c2ccc(Cl)cc2)s1` has a melting point of 167 to 168 °C. `O=C(Nc1ccc(Cl)cc1)/C(Br)=C/Br` gave a melting point of 99.5 to 100 °C. Molecule `COc1cccc2[nH]cc(C3CN4CCC3CC4)c12` (centres undefined) has a melting point of 193 to 195 °C. `Cn1c2cc(O)c(O)cc2c2cc(O)c(O)cc21` gave a melting point of over 270 °C. In the case of `O=C1N(Cc2ccc(C(F)(F)F)o2)c2cccc(Br)c2C12COc1cc3c(cc12)CCO3` (centres undefined), the melting point is reported as 165 to 167 °C. With `O=S(=O)(/C=C/c1ccc(Cl)cc1)Nc1cccc(Cl)c1` the melting point was 118 to 120 °C. `Cc1cc(=O)c(OCc2ccccc2)c(C(=O)NC2CCC2)n1C` showed a melting point of 221 to 222 °C. `CN(C)C(=O)NCc1ccc(Nc2n[nH]c3ncnc(Nc4cccc(Cl)c4)c23)cc1` gave a melting point of 238 to 240 °C. `COc1ccc(S(=O)(=O)N2CCc3cccc(-c4ccc(O)cc4)c32)cc1` showed a melting point of 179 to 180 °C. `O=C(O)CCCCCc1nn(-c2ccc([N+](=O)[O-])cc2)c2c1CCCC2` showed a melting point of 119 to 121 °C. For `CC(C)(C)c1cc(-c2cncn2CCCCl)cc(C(C)(C)C)c1O`, the melting point was 178 to 179 °C. For `CS(=O)(=O)Nc1ccc(NC(=O)CN2CCC(Cc3ccccc3)CC2)cc1`, the melting point was 102 to 106 °C. Work on `O[C@@H]1c2cc3c(cc2CC[C@H]1NCCc1ccccc1)CCO3` (relative stereo) yielded a melting point of 144 to 148 °C. In the case of `O=C(c1ccc(F)c(F)c1)N1CCCC(c2noc(-c3ccc[nH]3)n2)C1` (centres undefined), the melting point is reported as 168 °C. Work on `CC(Cc1c[nH]c2ccccc12)NC1CCC(c2ccccc2)(N(C)C)CC1` (centres undefined) yielded a melting point of 155 to 162 °C. Work on `CNc1cccc2c1CCn1cc(-c3ccccc3)nc1C2OC1CCN(C)CC1` (centres undefined) yielded a melting point of 189 °C. Work on `Cc1cc(C(=O)O)ccc1OCCNC(=O)C1Cc2ccccc2N1S(=O)(=O)c1ccc(-c2cccc(C(F)(F)F)c2)cc1` (centres undefined) yielded a melting point of 102 to 108 °C. With `CN(C)c1cccc(NC(=O)NC2C(=O)N(CC34CC5CC(CC(C5)C3)C4)c3ccccc3N(c3ccccc3)C2=O)c1` (centres undefined) the melting point was 263 to 265 °C. `COc1ccc(C2=NNC(=O)CC2)cc1Cl` showed a melting point of 194 to 195 °C. With `CC(C)Cn1c(CNC(=O)OC(C)(C)C)c(-c2ccc(Cl)cc2)c2cc(/C=C/C(=O)O)ccc2c1=O` the melting point was 147 to 149 °C. Molecule `CCCCNC(=O)[C@@H](C[C@H](O)[C@H](CC1CCCCC1)NC(=O)[C@H](Cc1cscn1)NC(=O)[C@@H](CC(=O)N1CCOCC1)Cc1ccccc1)C(C)C` has a melting point of 161 to 163 °C. `O=C(Nc1cccc(Cl)c1C(=O)O)c1ccc(F)cc1` showed a melting point of 228 to 233 °C. With `C#Cc1ccc(-c2ccc(Br)cc2)cc1` the melting point was 145 to 150 °C. With `CCCCOc1ccc(S(=O)(=O)C2(C(=O)O)CCN(Cc3cccc(Oc4ccccc4)c3)CC2)cc1` the melting point was 92.5 °C. With `NCc1ccc(C(=O)NC2CCN(C3CCCCC3)C2)cc1` (centres undefined) the melting point was 125 to 129 °C. Molecule `COC(=O)c1ccc2c(c1C(=O)OC)OCO2` has a melting point of 57 to 59 °C. `N#Cc1cc(Sc2ccc3ccccc3c2)ccc1[N+](=O)[O-]` showed a melting point of 139 to 140 °C. With `COc1ccc(C(=O)c2c(-c3ccccc3)sc3ccccc23)cc1` the melting point was 107 to 109 °C. `FC(F)(F)COc1cc(-c2cc(C(F)(F)F)n3ncc(-c4ccncc4)c3n2)ccc1C(F)(F)F` showed a melting point of 251 °C. For `CC(=O)Nc1cccc2c1CC(=O)CC2`, the melting point was 203 to 205 °C. Work on `COc1cccc(CCN2C(=O)c3ccccc3C2(O)c2ccncc2)c1` (centres undefined) yielded a melting point of 190 °C. `COC(=O)CN(C)c1nc(-c2ccc(Br)cc2)c(C=O)s1` gave a melting point of 105 to 106 °C. Work on `CCCCOC(=O)CN(C(=O)C(F)(F)F)C(NC(C)C)P(=O)(O)OSCC` (centres undefined) yielded a melting point of 64 to 65 °C. `CC(C)(O)CC1c2ccccc2C(=O)N1CC(=O)O` (centres undefined) showed a melting point of 198 to 199 °C. With `OCCCC(c1c[nH]c2ccccc12)c1c[nH]c2ccccc12` the melting point was 110 to 115 °C. Molecule `CC(C)C(NC(=O)Nc1ccc(C(=O)NCC(=O)OCc2ccccc2)cc1)C(=O)N1CCCC1C(=O)NC(C(=O)C(F)(F)F)C(C)C` (mixture of isomers) has a melting point of 65 to 70 °C. With `Cc1cc(N)cc2c1NC(=O)CC2C` (centres undefined) the melting point was 207 to 210 °C. Work on `OCC1OC(n2cnc3c(Cl)cc(Cl)nc32)C(O)C1O` (centres undefined) yielded a melting point of 148 to 150 °C. In the case of `Nc1ccnc(N2CCN(c3nc4cccccc-4n3)CC2)n1`, the melting point is reported as 205 to 208 °C. Work on `COc1ccc(C(=O)N2c3ccccc3SC2C#N)cc1` (centres undefined) yielded a melting point of 122 to 123 °C. With `Cn1ncc2c(c1=O)SCCNC2Cc1ccc(Cl)cc1` (centres undefined) the melting point was 106 to 109 °C.
